Values after ≈ are worked out from the molar mass of the structure shown. Read-outs that look alike come from different tables or passages of the source.
What was measured:
[1] = target: T1, Notch1 transcriptional complex (Homo sapiens, UniProt P46531); assay: 2xCSL DNA affinity precipitation, OE33 nuclear lysate: Notch1; format: cell-based; details: OE33, 48 hours of treatment
T1 construct: endogenous in cells; host or cells: OE33 cells, nuclear lysate
Procedure: DNA Affinity Purification
Streptavidin agarose beads (Pierce) were incubated with previously annealed 47-mer biotinylated dsDNA containing two high-affinity CSL binding sites facing forward (2×CSL binding DNA) or 2 mutated CSL binding sites (mut. DNA). Sequences were previously reported by Weaver et al. (2014) Cancer Res. The nuclear lysates of OE33 cell lines were incubated with the DNA streptavidin beads, and bound proteins were analyzed by Western blot. Protein analysis was carried out using conventional SDS-PAGE and transfer techniques. Blots were probed with the indicated antibody (“Ab”), using standard conditions, and detected using enhanced chemiluminescence (“ECL”). The following Ab were used: anti-Notch1^val1744 (4147S, Cell Signaling Technology), anti-Notch2^val1697 (SAB4502022, Sigma-Aldrich), anti-Notch3 (5276S, Cell Signaling), anti-CSL (5313S, Cell signaling), anti-SP1 (5931S, Cell Signaling), and anti-GAPDH (ab9483 Abcam).

[2] = Pharmacokinetic study in mouse plasma; format: in vivo; details: for Cmax: read-out: *C0/Cmax; for bioavailability: mouse
Procedure: Pharmacokinetic studies were performed as previously described (Astudillo et al. (2016) Cancer Res). The following treatments were administered: NADi-260 via intraperitoneal (i.p.) route at 100 mg/kg, NADI-260 via intravenous route (i.v.) at 2 mg/kg, NADi-351 via i.p. at 10 mg/kg, NADi-351 via […] at 10 mg/kg and NADi-351 via oral route (PO) at 50 mg/kg. Blood samples were collected from each treatment group and their respective control grounds, plasma was separated from blood immediately by centrifugation at 4000 rpm for 10 min at 4° C. and stored below −70° C. until bioanalysis. All samples were processed for analysis by protein precipitation using acetonitrile and analyzed by fit for purpose LC-MS/MS method. Pharmacokinetic parameters were calculated using the non-compartmental analysis module of Phoenix WinNonlin (Version 6.3). Histological Analysis of Mouse Intestine Tissue

[3] = system: OE33 cell line (esophageal adenocarcinoma); assay: Colony assay, OE33; format: cell-based, human; details: OE33, repeat dose every 48 hours for 10 days
Procedure: Cells were plated into a 6 well plate at a density of 2000 cells/cm^2. Inhibitor treatment commenced 24 hours post seeding, and the media containing inhibitor was changed every 48 hours thereafter. […]

[4] = Pharmacokinetic study in mouse plasma; format: in vivo; details: iv, i.v. 10 mg/kg
[5] = physchem
[6] = ip, i.p. 10 mg/kg, mouse plasma
[7] = iv, i.v. 10 mg/kg, mouse plasma
[8] = po, p.o. 50 mg/kg, mouse plasma

T1 sequence (P46531 1754-2555 limits assumed): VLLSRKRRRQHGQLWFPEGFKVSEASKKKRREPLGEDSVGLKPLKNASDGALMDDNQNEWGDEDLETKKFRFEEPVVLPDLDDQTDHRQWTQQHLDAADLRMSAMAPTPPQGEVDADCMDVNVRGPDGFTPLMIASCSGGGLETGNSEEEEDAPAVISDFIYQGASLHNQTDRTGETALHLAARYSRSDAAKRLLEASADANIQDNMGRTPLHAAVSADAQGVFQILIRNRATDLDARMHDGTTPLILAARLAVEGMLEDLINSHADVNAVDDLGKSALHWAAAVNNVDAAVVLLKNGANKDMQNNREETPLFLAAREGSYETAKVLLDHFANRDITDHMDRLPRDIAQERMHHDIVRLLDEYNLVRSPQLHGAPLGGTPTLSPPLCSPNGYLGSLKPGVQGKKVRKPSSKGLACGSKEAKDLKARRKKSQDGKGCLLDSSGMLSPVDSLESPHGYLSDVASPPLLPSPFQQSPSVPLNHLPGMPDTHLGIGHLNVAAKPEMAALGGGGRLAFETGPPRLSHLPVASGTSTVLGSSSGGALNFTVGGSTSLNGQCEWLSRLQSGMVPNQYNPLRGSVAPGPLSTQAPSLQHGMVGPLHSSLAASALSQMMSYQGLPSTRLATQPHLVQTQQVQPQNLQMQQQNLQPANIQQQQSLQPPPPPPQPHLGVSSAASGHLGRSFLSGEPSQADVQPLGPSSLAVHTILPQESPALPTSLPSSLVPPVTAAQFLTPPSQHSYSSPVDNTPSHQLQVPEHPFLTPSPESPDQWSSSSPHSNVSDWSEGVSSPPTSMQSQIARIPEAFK
T1 sequence (Q06330 whole entry partner): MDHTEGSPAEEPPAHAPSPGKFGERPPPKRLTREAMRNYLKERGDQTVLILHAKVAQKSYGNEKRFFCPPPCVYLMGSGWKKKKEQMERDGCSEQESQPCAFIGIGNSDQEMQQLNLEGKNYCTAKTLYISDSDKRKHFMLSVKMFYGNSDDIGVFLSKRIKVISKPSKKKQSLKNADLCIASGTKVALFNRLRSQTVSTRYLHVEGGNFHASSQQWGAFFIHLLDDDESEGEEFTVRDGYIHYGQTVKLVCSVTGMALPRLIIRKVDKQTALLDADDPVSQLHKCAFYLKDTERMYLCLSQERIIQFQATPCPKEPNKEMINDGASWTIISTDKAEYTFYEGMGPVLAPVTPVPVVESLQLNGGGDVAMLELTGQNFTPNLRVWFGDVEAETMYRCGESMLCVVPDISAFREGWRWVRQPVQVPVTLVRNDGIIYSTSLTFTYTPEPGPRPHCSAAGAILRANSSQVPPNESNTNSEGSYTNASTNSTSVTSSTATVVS

- formation of the Notch1 intracellular domain (N1icd) complex [1]: inhibited the formation
- AUC(0-inf) [2, 6]: 4550 ng·h/mL
- AUC(0-t) [2, 6]: 4550 ng·h/mL
- Tmax [2, 6]: 15 min
- Cmax [2, 6]: 8200 ng/mL
- AUC(0-inf) [2, 7]: 4570 ng·h/mL
- clearance [2, 7]: 36.5 mL/min/kg
- half-life [2, 7]: 87.6 min
- Vd ([2]; iv, i.v. 10 mg/kg, mouse plasma, read-out: Vss): 0.8 L/kg
- bioavailability ([2]; FIG. 3): excellent bioavailability
- bioavailability ([2]; plasma, po, p.o. 50 mg/kg, read-out: % F): > 100%
- AUC(0-inf) [2, 8]: 38000 ng·h/mL
- AUC(0-t) [2, 8]: 37900 ng·h/mL
- Tmax [2, 8]: 30 min
- Cmax [2, 8]: 17500 ng/mL
- AUC(0-t) [4]: 4570 ng·h/mL
- Cmax ([4]; back extrapolated, read-out: *C0/Cmax): 15900 ng/mL
- solubility ([5]; pH 1.2, simulated gastric fluid): 158 ± 7.7 µM (≈ 73.3 µg/mL)
- solubility ([5]; pH 6.5, fassif): 150 ± 4.1 µM (≈ 69.9 µg/mL)
- solubility ([5]; pH 7.4, aqueous buffer): 155 ± 9.6 µM (≈ 72 µg/mL)
SMILES: COc1cc(/C(C)=C2\SC(=S)N(CC(=O)N(C)C)C2=O)cc(F)c1OCc1nnc[nH]1 [NADi-351, (Z)-2-(5-(1-(4-((1H-1,2,4-triazol-3-yl)methoxy)-3-fluoro-5-methoxyphenyl)ethylidene)-4-oxo-2-thioxothiazolidin-3-yl)-N,N-dimethylacetamide]
- metabolic stability compared with NADi-260 ([2]; mouse plasma, FIG. 3): significantly improved metabolic stability
- colony formation [3]: decreased colony formation
